Measured values taken from patent publication US20090099169A1, “Benzofuran Compounds As EP1 Receptor Antagonists” (GLAXO GROUP LIMITED, priority 2006, published 2009).
Counter-ions that a name gives are not always drawn.

target: T1, human EP1 receptor (Homo sapiens, UniProt P34995); assay: human EP1 calcium mobilisation assay; format: cell-based; parameters: expressed in transfected cells; conditions: CHO-K1 cells, antagonism of PGE2; averages of a number of experiments; read-out: functional pKi value (human EP1 calcium mobilisation assay) (converted)
T1 sequence (P34995 1-402): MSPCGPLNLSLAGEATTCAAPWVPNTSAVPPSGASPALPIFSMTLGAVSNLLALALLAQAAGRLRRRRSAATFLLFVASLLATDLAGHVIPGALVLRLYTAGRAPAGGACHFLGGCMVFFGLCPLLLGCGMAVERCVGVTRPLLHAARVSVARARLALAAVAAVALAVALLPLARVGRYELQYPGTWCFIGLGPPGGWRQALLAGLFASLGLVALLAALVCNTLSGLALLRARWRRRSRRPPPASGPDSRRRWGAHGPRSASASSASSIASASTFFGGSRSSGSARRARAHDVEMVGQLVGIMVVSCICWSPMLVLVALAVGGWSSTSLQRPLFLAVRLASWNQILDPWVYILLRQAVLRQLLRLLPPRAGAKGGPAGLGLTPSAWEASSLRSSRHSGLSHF
Procedure: Briefly, the antagonist properties of compounds are assessed by their ability to inhibit the mobilisation of intracellular calcium ([Ca^2+]i) in response to activation of EP1 or EP3 receptors by the natural agonist hormone prostaglandin E2 (PGE2). Increasing concentrations of antagonist reduce the amount of calcium that a given concentration of PGE2 can mobilise. The net effect is to displace the PGE2 concentration-effect curve to higher concentrations of PGE2. The amount of calcium produced is assessed using a calcium-sensitive fluorescent dye such as Fluo-4, AM and a suitable instrument such as a Fluorimetric Imaging Plate Reader (FLIPR). Increasing amounts of [Ca^2+]i produced by receptor activation increase the amount of fluorescence produced by the dye and give rise to an increasing signal. The signal may be detected using the FLIPR instrument and the data generated may be analysed with suitable curve-fitting software.
The human EP1 or EP3 calcium mobilisation assay (hereafter referred to as ‘the calcium assay’) utilises Chinese hamster ovary-K1 (CHO-K1) cells into which a stable (PCIN; BioTechniques 20 (1996): 102-110) vector containing either EP1 or EP3 cDNA has previously been transfected. Cells are cultured in suitable flasks containing culture medium such as DMEM:F-12 supplemented with 10% v/v foetal calf serum, 2 mM L-glutamine, 0.25 mg/ml geneticin, 100 μM flurbiprofen and 10 μg/ml puromycin.
For assay, cells are harvested using a proprietary reagent that dislodges cells such as Versene. Cells are re-suspended in a suitable quantity of fresh culture media for introduction into a 384-well plate. Following incubation for 24 hours at 37° C. the culture media is replaced with a medium containing Fluo-4 and the detergent pluronic acid, and a further incubation takes place. Concentrations of compounds are then added to the plate in order to construct concentration-effect curves. This may be performed on the FLIPR in order to assess the agonist properties of the compounds. Concentrations of PGE2 are then added to the plate in order to assess the antagonist properties of the compounds.
The data so generated may be analysed by means of a computerised curve-fitting routine. The concentration of compound that elicits a half-maximal inhibition of the calcium mobilisation induced by PGE2 (pIC50) may then be estimated.

Ki [nM]	Compound
≤ 316	Cc1cc(C(=O)NN2CCOCC2)nn1Cc1cc(C#N)cc2cc(C(C)C)oc12 [Example 45, 1-{[5-Cyano-2-(1-methylethyl)-1-benzofuran-7-yl]methyl}-5-methyl-N-4-morpholinyl-1H-pyrazole-3-carboxamide]
≤ 316	Cc1cc(C(=O)NCC2CCOCC2)nn1Cc1cc(Cl)cc2cc(C(C)C)oc12 [Example 61, 1-{[5-Chloro-2-(1-methylethyl)-1-benzofuran-7-yl]methyl}-5-methyl-N-(tetrahydro-2H-pyran-4-ylmethyl)-1H-pyrazole-3-carboxamide]
≤ 316	Cc1cc(C(=O)NN2CCOCC2)nn1Cc1cc(Cl)cc2cc(C3CC3)oc12 [Example 31, 1-[(5-Chloro-2-cyclopropyl-1-benzofuran-7-yl)methyl]-5-methyl-N-4-morpholinyl-1H-pyrazole-3-carboxamide]
1000 to 1580	Cc1cc(C(=O)NC2CCNCC2)nn1Cc1cc(Cl)cc2cc(C(C)C)oc12 [Example 33, 1-{[5-chloro-2-(1-methylethyl)-1-benzofuran-7-yl]methyl}-5-methyl-N-4-piperidinyl-1H-pyrazole-3-carboxamide Hydrochloride]
1000 to 1580	CCN1CCC(CNC(=O)c2cc(C)n(Cc3cc(Cl)cc4cc(C(C)C)oc34)n2)CC1 [Example 36, 1-{[5-chloro-2-(1-methylethyl)-1-beenzofuran-7-yl]methyl}-N-[(1-ethyl-4-piperidinyl)methyl]-5-methyl-1H-pyrazole-3-carboxamidehydrochloride]
≤ 316	Cc1cc(C(N)=O)nn1Cc1cc(C#N)cc2cc(C(C)C)oc12 [Example 41, 1-{[5-Cyano-2-(1-methylethyl)-1-benzofuran-7-yl]methyl}-5-methyl-1H-pyrazole-3-carboxamide]

Further lines, the molecule ahead of its results:

Compound	Ki [nM]
CC(C)c1cc2cc(Cl)cc(Cc3ccc(-c4nc5cc(CN6CCN(C)CC6)ccc5[nH]4)o3)c2o1 [Example 13, 2-(5-{[5-Chloro-2-(1-methylethyl)-1-benzofuran-7-yl]methyl}-2-furanyl)-5-[(4-methyl-1-piperazinyl)methyl]-1H-benzimidazole Hydrochloride]	≤ 316
CC(C)c1cc2cc(Cl)cc(Cc3ccc(C(=O)NCCN(C)C)o3)c2o1 [Example 58, 5-{[5-Chloro-2-(1-methylethyl)-1-benzofuran-7-yl]methyl}-N-[2-(dimethylamino)ethyl]-2-furancarboxamidehydrochloride]	1000 to 1580
Cc1cc(NC(=O)C2CCOCC2)nn1Cc1cc(C#N)cc2cc(C(C)C)oc12 [Example 70, N-(1-{[5-Cyano-2-(1-methylethyl)-1-benzofuran-7-yl]methyl}-5-methyl-1H-pyrazol-3-yl)tetrahydro-2H-pyran-4-carboxamide]	≤ 316
Cc1cc(C(=O)O)nn1Cc1cccc2cc(C(C)C)oc12 [Example 20, 5-Methyl-1-{[2-(1-methylethyl)-1-benzofuran-7-yl]methyl}-1H-pyrazole-3-carboxylic Acid]	≤ 316
CC(C)c1cc2cc(Cl)cc(Cc3ccc(-c4nc5cc(CN(C)C)ccc5[nH]4)o3)c2o1 [Example 11, 1-[2-(5-{[5-Chloro-2-(1-methylethyl)-1-benzofuran-7-yl]methyl}-2-furanyl)-1H-benzimidazol-5-yl]-N,N-dimethylmethanamine Hydrochloride]	≤ 316
CC(C)c1cc2cc(Cl)cc(Cc3cccc(C(N)=O)n3)c2o1 [Example 40, 6-{[5-Chloro-2-(1-methylethyl)-1-benzofuran-7-yl]methyl}-2-pyridinecarboxamide]	≤ 316
Cc1cc(NC(=O)[C@H]2CCCO2)nn1Cc1cc(C#N)cc2cc(C(C)C)oc12 [Example 69, (2R)—N-(1-{[5-Cyano-2-(1-methylethyl)-1-benzofuran-7-yl]methyl}-5-methyl-1H-pyrazol-3-yl)tetrahydro-2-furancarboxamide]	≤ 316
CC(C)c1cc2cc(Cl)cc(Cc3ccc(C(=O)NN4CCCCC4)o3)c2o1 [Example 43, 5-{[5-Chloro-2-(1-methylethyl)-1-benzofuran-7-yl]methyl}-N-1-piperidinyl-2-furancarboxamide]	≤ 316
CC(C)c1cc2cc(Cl)cc(Cc3ccc(C(=O)Nc4ccc(CN5CCOCC5)cc4)o3)c2o1 [Example 54, 5-{[5-Chloro-2-(1-methylethyl)-1-benzofuran-7-yl]methyl}-N-[4-(4-morpholinylmethyl)phenyl]-2-furancarboxamide Hydrochloride]	≤ 316
CC(C)c1cc2cc(Cl)cc(Cc3ccc(-c4nc5cc(CN6CCCC6)ccc5[nH]4)o3)c2o1 [Example 12, 2-(5-{[5-Chloro-2-(1-methylethyl)-1-benzofuran-7-yl]methyl}-2-furanyl)-5-(1-pyrrolidinylmethyl)-1H-benzimidazole Hydrochloride]	≤ 316
CC(C)c1cc2cc(Cl)cc(Cc3ccc(C(=O)NN4CCOCC4)o3)c2o1 [Example 42, 5-{[5-Chloro-2-(1-methylethyl)-1-benzofuran-7-yl]methyl}-N-4-morpholinyl-2-furancarboxamide]	≤ 316

target: T1, human EP1 receptor; assay: Binding assay for the human prostanoid EP1 receptor (radioligand competition); parameters: expressed in transfected cells; host or cells: CHO-K1 (membranes); conditions: CHO-K1 membranes; [3H]-PGE2 for Examples 1-17, 19, 33, 34, 60 and 61, 3-{2-[5-Bromo-2-(2,4-difluorobenzyloxy)-phenyl]-5-methyl-pyrrol-1-yl}-6-[3H3-methoxy]methoxy-benzoic acid for the remaining; averages of a number of experiments; read-out: pIC50 value (binding assay for the human prostanoid EP1 receptor) (converted)
Procedure: Compound potencies are determined using a radioligand binding assay. In this assay compound potencies are determined from their ability to compete with tritiated prostaglandin E2 ([^3H]-PGE2) for binding to the human EP1 receptor.
This assay utilises Chinese hamster ovary-K1 (CHO-K1) cells into which a stable vector containing the EP1 cDNA has previously been transfected. Cells are cultured in suitable flasks containing culture medium such as DMEM:F-12 supplemented with 10% v/v foetal calf serum, 2 mM L-glutamine, 0.25 mg/ml geneticin, 10 μg/ml puromycin and 10 μM indomethacin.
Cells are detached from the culture flasks by incubation in calcium and magnesium free phosphate buffered saline containing 1 mM disodium ethylenediaminetetraacetic acid (Na2EDTA) and […] indomethacin for 5 min. The cells are isolated by centrifugation at 250×g for 5mins and suspended in an ice cold buffer such as 50 mM Tris, 1 mM Na2EDTA, 140 mM NaCl, 10 μM indomethacin (pH 7.4). The cells are homogenised using a Polytron tissue disrupter (2×10 s burst at full setting), centrifuged at 48,000×g for 20mins and the pellet containing the membrane fraction is washed (optional) three times by suspension and centrifugation at 48,000×g for 20mins. The final membrane pellet is suspended in an assay buffer such as 10 mM 2-[N-morpholino]ethanesulphonic acid, 1 mM Na2EDTA, 10 mM MgCl2 (pH 6). Aliquots are frozen at −80° C. until required.
(§1) For the binding assay the cell membranes, competing compounds and [^3H]-PGE2 (3 nM final assay concentration) are incubated in a final volume of 100 μl for 30 min at 30° C. All reagents are prepared in assay buffer. Reactions are terminated by rapid vacuum filtration over GF/B filters using a Brandell cell harvester. The filters are washed with ice cold assay buffer, dried and the radioactivity retained on the filters is measured by liquid scintillation counting in Packard TopCount scintillation counter.
The data are analysed using non linear curve fitting techniques to determine the concentration of compound producing 50% inhibition of specific binding (IC50).
Alternatively a similar assay may be carried out using 3-{2-[5-Bromo-2-(2,4-difluoro-benzyloxy)-phenyl]-5-methyl-pyrrol-1-yl}-6-[^3H3-methoxy]methoxy-benzoic acid instead of [^3H]-PGE2.
For the binding assay using 3-{2-[5-Bromo-2-(2,4-difluoro-benzyloxy)-phenyl]-5-methyl-pyrrol-1-yl}-6-[^3H3-methoxy]methoxy-benzoic acid instead of [^3H]-PGE2 the assay is carried out using a similar procedure to that described above using [^3H]-PGE2 with the following changes:
as §1, with “The” for “For the binding assay the”, “3-{2-[5-Bromo-2-(2,4-difluoro-benzyloxy)-phenyl]-5-methyl-pyrrol-1-yl}-6-[^3H3-methoxy]methoxy-benzoic acid (0.2” for “[^3H]-PGE2 (3”, “400” for “100”, “45” for “30”, “37°” for “30°”, “water at ambient temperature,” for “ice cold assay buffer,”
The preparation of 3-{2-[5-Bromo-2-(2,4-difluoro-benzyloxy)-phenyl]-5-methyl-pyrrol-1-yl}-6-methoxy-benzoic acid is described in WO 03/101959 and in Hall et al, Biorg. Med. Chem. Lett., 2007, 17, 916-920. The tritiated version may be prepared via conventional routes, e.g. from 3-{2-[5-bromo-2-(2,4-difluoro-benzyloxy)-phenyl]-5-methyl-pyrrol-1-yl}-6-hydroxy-benzoic acid or 3-{2-[5-bromo-2-(2,4-difluoro-benzyloxy)-phenyl]-5-methyl-pyrrol-1-yl}-6-hydroxy-benzoic acid methyl ester.

IC50 [nM]	Compound
≤ 100	Cc1cc(NC(=O)[C@H]2CC[C@@H](O)CC2)nn1Cc1cc(Cl)cc2cc(C(C)C)oc12 [Example 62, cis-N-(1-{[5-Chloro-2-(1-methylethyl)-1-benzofuran-7-yl]methyl}-5-methyl-1H-pyrazol-3-yl)-4-hydroxycyclohexanecarboxamide]
